Test results from patent publication US6903104B2, “Indol-3-YL-2-oxoacetamide compounds and methods of use thereof” (National Health Research Institutes, priority 2001, dated 2005).
pIC50: −log10 of the molar value.

How the values were obtained:
[1] = test system: nasopharyngeal HONE1 cancer cells; assay: In vitro cytotoxicity MTS assay, nasopharyngeal HONE1; assay type: cell-based, human; settings: 72 hours
Method: (§1) A panel of human cancer cells, gastric NUGC3 and HR, nasopharyngeal HONE1, hepatocellular HEP G2 and HA-22T, colorectal DLD1, lung A549, prostate PC3, breast MCF7 and its adriamycin-resistant MCF7/ADR subline, uterus MES-SA and its adriamycin-resistant MES-SA/Dx5 subline, is purchased from Food Industry Research and Development Institute, Hsinchu, Taiwan R.O.C. or American Type Culture Collection, Manassas, Va. U.S.A., are used in in vitro cytotoxicity assays. The human cells are seeded at a cell density of 3000 or 4500 cells/100 μl/well in 96-well flat-bottom plates and incubated for 24 hours at 37° C. in a 5% CO2 incubator. The testing compounds are dissolved in dimethyl sulfoxide (DMSO) and further diluted into the culture medium for treatments of human cancer cells in vitro. The drug-containing media has a final DMSO concentration of ≦0.3%. The compounds of this invention are prepared in culture media for testing at a range of concentrations from 10, 1, 0.1, 0.01 to 0.001 μM. Each compound solution is (200 μl/well in duplicate) in the cell plates and is treated for 72 hours at 37° C., 5% CO2 in an incubator. Actinomycin D at 5 μM and 0.3% DMSO are used as the positive and vehicle controls, respectively. A colorimetric assay using 3-(4,5-dimethylthiazol-2-yl)-5-(3-carboxymethoxyphenyl)-2-(4-sulfophenyl)-2H-tetrazolium (MTS) and phenazine methosulfate (PMS) is used to determine the potency of the compounds. This assay measures cell viability based on the cellular activity in conversion of a tetrazolium salt into a colored soluble formazan product. The optical density (OD) values are measured at 490 nm with a 1420 multilabel counter VICTOR® from Wallac, Turku, Finland. All of the measured values are subtracted with that of the blank control wells without cells before further calculations. The efficacy data are expressed as a percentage normalized to the vehicle controls as calculated in the following formulae. Inhibitory potency (% of vehicle control)=[(OD490compound−OD490blank)/(OD490vehicle−OD490blank)]×100%. The concentration (IC50) of a test compound that inhibits 50% of the cellular activity is determined.

[2] = test system: breast MCF7 cancer cells; assay: In vitro cytotoxicity MTS assay, breast MCF7; assay type: cell-based, human; settings: 72 hours
Method: as §1

[3] = test system: gastric NUGC3 cancer cells; assay: In vitro cytotoxicity MTS assay, gastric NUGC3; assay type: cell-based, human; settings: 72 hours
Method: as §1

[4] = test system: hepatocellular HEP G2 cancer cells; assay: In vitro cytotoxicity MTS assay, hepatocellular HEP G2; assay type: cell-based, human; settings: 72 hours
Method: as §1

[5] = test system: adriamycin-resistant MES-SA/Dx5 subline; assay: In vitro cytotoxicity MTS assay, adriamycin-resistant MES-SA/Dx5; assay type: cell-based, human; settings: 72 hours
Method: as §1

[6] = test system: uterus MES-SA cancer cells; assay: In vitro cytotoxicity MTS assay, uterus MES-SA; assay type: cell-based, human; settings: 72 hours
Method: as §1

[7] = test system: adriamycin-resistant MCF7/ADR subline; assay: In vitro cytotoxicity MTS assay, adriamycin-resistant MCF7/ADR; assay type: cell-based, human; settings: 72 hours
Method: as §1

[8] = test system: colorectal DLD1 cancer cells; assay: In vitro cytotoxicity MTS assay, colorectal DLD1; assay type: cell-based, human; settings: 72 hours
Method: as §1

[9] = test system: hepatocellular HA-22T cancer cells; assay: In vitro cytotoxicity MTS assay, hepatocellular HA-22T; assay type: cell-based, human; settings: 72 hours
Method: as §1

[10] = test system: rat aorta endothelial cells; assay: Rat aorta tube formation assay (angiogenesis inhibition); assay type: cell-based, Spraque-Dawley rats; parameters: key: Noninhibitors are indicated by the symbol (−), meaning that the extent of endothelial cell growth is essentially at the same level as that of the control; The most potent inhibitors receive a score of (+++++), indicating essentially no measurable endothelial cell growth; settings: 5 days
Method: The procedures are modified from previous reports (Burbridge and West 2001; Bauer et al. 2000; Nicosai and Ottinetti 1990a) and described as follows. Male Spraque-Dawley rats of 6-8 weeks old are purchased from the National Laboratory Animal Breeding and Research Center (Taipei, Taiwan). The animals are anesthetized with urethane (2 g/kg, intraperitoneal) and the thoracic aortas are quickly harvested in a laminar flow hood. The aortas are rinsed with ice-cold normal saline with 10 μg/ml gentamicin and the attached fibroadipose tissues are removed using micro-dissection scissors. The aortas are cross-sectioned into rings of 1 mm in thickness. A mixture of Matrigel®, purchased from BD Biosciences, solution and the EBM-II medium, purchased from BioWhittaker Inc., (1:1) with 2% FBS, 0.25 mg/ml, amphotericin B and 10 μg/ml gentamicin is prepared and added at 100 μl to each well of a 48-well plate. The mixture is allowed to gel at 37° C. Aorta rings are then placed onto the gelled matrix and embedded in an additional 150 μl per well of the mixture solution and allowed to gel at 37° C. The aorta rings are then covered with 125 μl of the EGM-II medium and incubated overnight in humidified incubator with 5% CO2/95% air at 37° C. After removal of the EGM-II from the established aorta cultures, the compound-containing media are applied at 300 μl per well to the cultures and then incubated in 5% CO2/95% air at 37° C. for 5 days. The cultures are then subject to the 3-[4,5-dimethylthiazol-2-yl]-2,5 diphenyl-2H-tetrazolium bromide (MTT) or 3-(4,5-dimethylthiazol-2-yl)-5-(3-carbomethoxyphenyl)-2H-tetrazolium (MTS) assay and OD490 nm values measured. The testing compounds are dissolved in dimethyl sulfoxide (DMSO) and prepared in EBM-II media with at a final concentration of DMSO less than 0.1%.
The capillary-like, tube structure of the outgrown rat aorta endothelial cells is easily visualized by MTT staining. The medium on top of the matrix is removed from the established aorta ring cultures. MTT solution of 5 mg/ml in saline is added to the cultures at 100 μl/well and the cultures are incubated in a CO2 incubator at 37° C. for 24 hr. The stained cultures are then examined under a microscope DMIRB from Leica and photos taken with a digital camera.
Inhibition activity is also assessed in the following manner. The reductive reaction of MTS initiated by the viable cellular mitochondrial activity is used as a basis for the measurement of cell viability (Cory et al. 1991; Gieni et al. 1995). To the rat aorta ring cultures 300 μl of a solution containing 100 μg MTS and 1 μg, phenazine methosulfate is added per well and incubated in 5% CO2/95% air at 37° C. for 24 hr. During the incubation, MTS is converted to formazan product. At the end of incubation, the solution overlaying the gel is well-mixed and 100 μl aliquots are transferred into a 96-well plate for measurement of OD490 nm with a spectrophotometer VICTOR™-II from Wallac Oy.
The compounds listed in Table 3 are screened for angiogenesis inhibition. The control compound, ASTA, is D-24851, N-[pyridin-4-yl]-[1-(4-chlorobenzyl)-indol-3-yl]-glyoxylic acid amide. Noninhibitors are indicated by the symbol (−), meaning that the extent of endothelial cell growth is essentially at the same level as that of the control.

Row | Compound | pIC50 [1] | pIC50 [2] | pIC50 [3] | pIC50 [4] | pIC50 [5] | pIC50 [6] | pIC50 [7] | pIC50 [8] | pIC50 [9] | Inhibition Score ([10]; final conc. 0.3 μg/ml) | Inhibition Score ([10]; final conc. 1 μg/ml)
1 | Cc1cc(Cn2cc(C(=O)C(=O)Nc3cc(C)ns3)c3ccccc32)on1 [Compound 56] | 8.40 | 7.44 | 7.92 | 7.03 | 6.43 | 6.53 | 5.30 | 7.39 | 6.91 | +++++ | −
2 | Cc1cc(NC(=O)C(=O)c2cn(Cc3ccc(C#N)cc3)c3ccccc23)sn1 [Compound 25] | 6.68 | 6.33 | 6.29 | 5.75 | 6.40 | 6.43 | 5.28 | 6.27 | 6.16 | +++++ | 
